Where a name gives a salt, the structure may show the parent alone.
These compounds were tested against T1, human neutrophil elastase (Homo sapiens, UniProt P08246) (assay: In vitro assay of human neutrophil elastase (HNE)). Details: 118 nM purified human neutrophil elastase, pH 8.6, 15 min incubation at 30° C., MeO-succinyl-alanyl-alanyl-prolyl-valyl-p-nitroanilide substrate; read-out: HNE IC50.
T1 sequence (P08246 30-267): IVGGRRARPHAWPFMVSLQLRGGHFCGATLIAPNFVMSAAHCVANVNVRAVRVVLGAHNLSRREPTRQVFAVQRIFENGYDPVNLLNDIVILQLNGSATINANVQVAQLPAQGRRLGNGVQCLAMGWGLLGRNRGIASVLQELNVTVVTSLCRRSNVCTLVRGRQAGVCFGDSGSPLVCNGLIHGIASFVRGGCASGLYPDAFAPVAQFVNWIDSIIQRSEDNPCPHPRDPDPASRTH
Assay type: biochemical
How it was run: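 Residual activity was taken as the 10 min rate of absorbance rise at 405 nm after adding 0.6 mM MeO-succinyl-AAPV-p-nitroanilide. Curve fitting of activity against concentration gave IC50.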

Point of comparison: `CCC[C@H]1C(=O)N(S(=O)(=O)c2ccc3ccccc3c2)[C@H]2CCN(C(=O)CCN3CCCCC3)[C@H]12` [Example 56, (3R,3aR,6aS)-1-(Naphthalene-2-sulfonyl)-4-(3-piperidin-1-yl-propionyl)-3-propyl-hexahydro-pyrrolo[3,2-b]pyrrol-2-one hydrochloride], IC50 81 nM. Against it:
- CCC[C@H]1C(=O)N(S(=O)(=O)c2ccc(N)cc2)[C@H]2CCN(C(=O)CCCCCN3CCCCC3)[C@H]12 (relative stereo) [Example 209, rel-(3R,3aR,6aS)-1-(4-Amino-benzenesulfonyl)-4-(6-piperidin-1-yl-hexanoyl)-3-propyl-hexahydro-pyrrolo[3,2-b]pyrrol-2-one DL-tartrate] — within 1.5-fold, 71 nM
- CCC[C@H]1C(=O)N(S(C)(=O)=O)[C@H]2CCN(C(=O)CCN3CCC3)[C@H]12 (relative stereo) [Example 97, rel-(3R,3aR,6aS)-4-(3-Azetidin-1-yl-propionyl)-1-methanesulfonyl-3-propyl-hexahydro-pyrrolo[3,2-b]pyrrol-2-one hydrochloride] — 2.5-fold higher, 202 nM
- CCC[C@H]1C(=O)N(S(C)(=O)=O)[C@H]2CCN(C(=O)CCCCCN3CCC3)[C@H]12 (relative stereo) [Example 78, rel-(3R,3aR,6aS)-4-(6-Azetidin-1-yl-hexanoyl)-1-methanesulfonyl-3-propyl-hexahydro-pyrrolo[3,2-b]pyrrol-2-one DL-tartrate] — within 1.5-fold, 87 nM
- CCC[C@H]1C(=O)N(S(C)(=O)=O)[C@H]2CCN(C(=O)CN3CCCC3)[C@H]12 (relative stereo) [Example 108, hydrochloride] — 5.9-fold higher, 481 nM
- C=CC[C@H]1C(=O)N(S(=O)(=O)c2cccc3c(N(C)C)cccc23)[C@H]2CCN(C(=O)OCc3ccccc3)[C@H]12 (relative stereo) [Example 18, rel-(3aS,6R,6aR)-6-Allyl-4-(5-dimethylamino-naphthalene-1-sulfonyl)-5-oxo-hexahydro-pyrrolo[3,2-b]pyrrole-1-carboxylic acid benzyl ester] — within 1.5-fold, 69 nM
- CC(C)[C@H]1C(=O)N(S(C)(=O)=O)[C@H]2CCN(S(=O)(=O)c3ccc(N)cc3)[C@H]12 (relative stereo) [Example 237, rel-(3R,3aR,6aS)-4-(4-Amino-benzenesulfonyl)-3-isopropyl-1-methanesulfonyl-hexahydro-pyrrolo[3,2-b]pyrrol-2-one] — 2.8-fold lower, 29 nM
- CCC[C@H]1C(=O)N(S(=O)(=O)c2ccc3ccccc3c2)[C@H]2CCN(C(=O)CN3CCCCC3)[C@H]12 (relative stereo) [Example 3, rel-(3R,3aR,6aS)-1-(Naphthalene-2-sulfonyl)-4-(2-piperidin-1-yl-acetyl)-3-propyl-hexahydro-pyrrolo[3,2-b]pyrrol-2-one] — 2.5-fold higher, 205 nM
- CCC[C@H]1C(=O)N(S(C)(=O)=O)[C@H]2CCN(C(=O)/C=C/C(=O)OCC)[C@H]12 (relative stereo) [Example 128, rel-(3R,3aR,6aS)-4-(4-Methanesulfonyl-5-oxo-6-propyl-hexahydro-pyrrolo[3,2-b]pyrrole-1-yl)-4-oxo-but-2E-enoic acid ethyl ester] — 2.7-fold lower, 30 nM
- CCC[C@H]1C(=O)N(S(C)(=O)=O)[C@H]2CCN(S(=O)(=O)c3ccc(C(F)(F)F)cc3)[C@H]12 (relative stereo) [Example 216, rel-(3R,3aR,6aS)-1-Methanesulfonyl-3-propyl-4-(4-trifluoromethyl-benzenesulfonyl)-hexahydro-pyrrolo[3,2-b]pyrrol-2-one] — within 1.5-fold, 87 nM
- CCC[C@H]1C(=O)N(S(C)(=O)=O)[C@H]2CCN(C(=O)CN3CCCCCC3)[C@H]12 (relative stereo) [Example 104, rel-(3R,3aR,6aS)-4-Azepin-1-yl-acetyl)-1-methanesulfonyl-3-propyl-hexahydro-pyrrolo[3,2-b]pyrrol-2-one hydrochloride] — 7.1-fold higher, 574 nM
- CCC[C@H]1C(=O)N(S(C)(=O)=O)[C@H]2CCN(C(=O)CCCN3CCN(C)CC3)[C@H]12 (relative stereo) [Example 82, rel-(3R,3aR,6aS)-1-Methanesulfonyl-4-[4-(4-methyl-piperazin-1-yl)-butyryl]-3-propyl-hexahydro-pyrrolo[3,2-b]pyrrol-2-one dihydrochloride] — 2-fold higher, 162 nM
- CCC[C@H]1C(=O)N(S(C)(=O)=O)[C@H]2CCN(C(=O)CCN3CCCC3)[C@H]12 (relative stereo) [Example 93, rel-(3R,3aR,6aS)-1-Methanesulfonyl-3-propyl-4-(3-pyrrolidin-1-yl-propionyl)-hexahydro-pyrrolo[3,2-b]pyrrol-2-one hydrochloride] — within 1.5-fold, 89 nM
- CCCCOc1ccc(S(=O)(=O)N2C(=O)[C@H](CCC)[C@@H]3[C@@H]2CCN3C(=O)CCCCCN2CCCCC2)cc1 (relative stereo) [Example 204, rel-(3R,3aR,6aS)-1-(4-Butoxy-benzenesulfonyl)-4-(6-piperidin-1-yl-hexanoyl)-3-propyl-hexahydro-pyrrolo[3,2-b]pyrrol-2-one DL-tartrate] — within 1.5-fold, 98 nM
- C=CC[C@H]1C(=O)N(S(=O)(=O)/C=C/c2ccccc2)[C@H]2CCN(C(=O)OCc3ccccc3)[C@H]12 (relative stereo) [Example 44, rel-(3aS,6R,6aR)-6-Allyl-5-oxo-4-(2-phenyl-(E)-ethenesulfonyl)-hexahydro-pyrrolo[3,2-b]pyrrole-1-carboxylic acid benzyl ester] — within 1.5-fold, 94 nM
- CCC[C@H]1C(=O)N(S(=O)(=O)c2cccc3ccccc23)[C@H]2CCN(S(=O)(=O)CCCN3CCOCC3)[C@H]12 (relative stereo) [Example 36, rel-(3R,3aR,6aS)-4-(3-Morpholin-4-yl-propane-1-sulfonyl)-1-(naphthalene-1-sulfonyl)-3-propyl-hexahydro-pyrrolo[3,2-b]pyrrol-2-one] — 1.5-fold higher, 125 nM
- CCC[C@H]1C(=O)N(S(C)(=O)=O)[C@H]2CCN(C(=O)c3ccc(NC(C)=O)cc3)[C@H]12 (relative stereo) [Example 120, rel-N-[4-(4-Methanesulfonyl-5-oxo-6R-propyl-hexahydro-(3aS,6aR)-pyrrolo[3,2-b]pyrrole-1-carbonyl)-phenyl]-acetamide] — 1.9-fold lower, 42 nM
- CCC[C@H]1C(=O)N(S(C)(=O)=O)[C@H]2CCN(S(=O)(=O)c3ccccc3N)[C@H]12 (relative stereo) [Example 236, rel-(3R,3aR,6aS)-4-(2-Amino-benzenesulfonyl)-1-methanesulfonyl-3-propyl-hexahydro-pyrrolo[3,2-b]pyrrol-2-one] — 4.5-fold lower, 18 nM
- CC(C)[C@H]1C(=O)N(S(C)(=O)=O)[C@H]2CCN(S(=O)(=O)c3ccc(CN4CCCCCC4)cc3)[C@H]12 (relative stereo) [Example 199, rel-(3R,3aR,6aS)-4-(4-Azepin-1-ylmethyl-benzenesulfonyl)-3-isopropyl-1-methanesulfonyl-hexahydro-pyrrolo[3,2-b]pyrrol-2-one hydrochloride] — within 1.5-fold, 99 nM
- CCC[C@H]1C(=O)N(S(C)(=O)=O)[C@H]2CCN(C(=O)CCCCCCCCCN3CCCCCC3)[C@H]12 (relative stereo) [Example 66, rel-(3R,3aR,6aS)-4-(10-Azepin-1-yl-decanoyl)-1-methanesulfonyl-3-propyl-hexahydro-pyrrolo[3,2-b]pyrrol-2-one hydrochloride] — 2.4-fold lower, 34 nM
- CCC[C@H]1C(=O)N(S(C)(=O)=O)[C@H]2CCN(C(=O)CNC)[C@H]12 (relative stereo) [Example 110, rel-(3R,3aR,6aS)-1-Methanesulfonyl-4-methylaminoacetyl-3-propyl-hexahydro-pyrrolo[3,2-b]pyrrol-2-one trifluoroacetate] — 1.7-fold higher, 136 nM

— patent US6215002A, “Pyrrolopyrrolone derivatives as inhibitors of neutrophil elastase” (priority 1996, dated 2001)
